These results are taken from patent US7592308B2, “F3W variants of the lantibiotic mersacidin and its use” (priority 2004, dated 2009).

For experiment [1], the system named is E. faecium 19579. Kind of experiment: MIC, two-fold serial dilution in broth. The format is cell-based, Enterococcus faecium. To be noted: Table 8A; MHB + 50 μg/ml calcium; duplicate. The method, then:
(§1) A selection of the variants produced in Example 1 above were tested further for activity against a range of bacteria. Minimum inhibitory concentrations (MICs) for all organisms with the exception of Streptococcus pneumoniae were determined by two-fold serial antibiotic dilutions in Mueller-Hinton broth (MHB) supplemented with 50 μg/ml calcium as calcium chloride dihydrate. Minimum inhibitory concentrations (MICs) for S. pneumoniae were determined by two-fold serial antibiotic dilutions in Brain Heart Infusion (BHI) broth supplemented with 50 μg/ml calcium as calcium chloride dihydrate. Antimicrobial agent stock solutions were prepared and stored according to NCCLS standard M7-A6.
(§2) Actively growing broth cultures were diluted to contain […] by adjusting to an absorbance of 0.2-0.3 at 600 nm, equivalent to the McFarland 0.5 standard. They were then diluted a further 1:100 in broth. The assays were performed in duplicate in sterile 96-well microtitre plates in a total volume of 200 μl (160 μl broth, 20 μl antibiotic, 20 μl inoculum) in a concentration range from 64 μg/ml to 0.06 μg/ml. The 12th well of the microtitre plate contained no antimicrobial agent. Vancomycin was used as a reference antibiotic for quality control. Plates were incubated aerobically, shaking, for 18-20 hours at 37° C. with the MIC defined as the lowest concentration of drug that produced no visible growth.

In experiment [2] the test system is E. faecium 7131121. The experiment in a line: MIC, two-fold serial dilution in broth. In kind it is cell-based, Enterococcus faecium. To be noted: Table 8A; MHB + 50 μg/ml calcium; duplicate. The method, then:
as §1, §2

Experiment [3] concerns E. faecalis 29212. The experiment in a line: MIC, two-fold serial dilution in broth. The format is cell-based, Enterococcus faecalis. To be noted: Table 8A; MHB + 50 μg/ml calcium; duplicate. The method, then:
as §1, §2

Experiment [4] concerns S. aureus R33. In kind it is cell-based, Staphylococcus aureus. The note with it: Table 8A; MHB + 50 μg/ml calcium; duplicate. The method, then:
as §1, §2

The test system of experiment [5] is S. aureus SH1000. The format is cell-based, Staphylococcus aureus. To be noted: Table 8A; MHB + 50 μg/ml calcium; duplicate. The method, then: as §1, §2
Experiment [6] deals with S. epidermidis 11047. The format is cell-based, Staphylococcus epidermidis. To be noted: Table 8B; MHB + 50 μg/ml calcium; duplicate. The method, then: as §1, §2
For experiment [7], the system named is S. pneumoniae R6. In kind it is cell-based, Streptococcus pneumoniae. The note with it: Table 8B; BHI broth + 50 μg/ml calcium; duplicate. The method, then: as §1, §2
In experiment [8] the test system is M. luteus 4698. In kind it is cell-based, Micrococcus luteus. The method, then:
as §1, §2

Experiment [9] has as its system E. coli SM1411. Kind of experiment: MIC, two-fold serial dilution in broth. In kind it is cell-based. The note with it: Table 8B; MHB + 50 μg/ml calcium; duplicate. The method, then:
as §1
Actively growing broth cultures were diluted to contain […] by adjusting to an absorbance of 0.2-0.3 at 600 nm, equivalent to the McFarland 0.5 standard. They were then diluted a further 1:100 in broth. The assays were performed in duplicate in sterile 96-well microtitre plates in a total volume of 200 μl (160 μl broth, 20 μl antibiotic, 20 μl inoculum) in a concentration range from 64 μg/ml to 0.06 μg/ml. The 12th well of the microtitre plate contained no antimicrobial agent. Vancomycin was used as a reference antibiotic for quality control. […]

The test system of experiment [10] is S. pyogenes 13608. In kind it is cell-based, Streptococcus pyogenes. The method, then: (§3) MIC tests were performed with some of the variants of Example 2 on a range of other organisms. The results are shown in Tables 9 and 10 (figures in μg/ml): […]
Experiment [11] concerns S. pyogenes 16205. In kind it is cell-based, Streptococcus pyogenes. The method, then:
as §3

Experiment [12] has as its system S. aureus 1012-13 MRSA. The format is cell-based, Staphylococcus aureus. The method, then: as §3
The test system of experiment [13] is S. aureus COL MRSA. In kind it is cell-based, Staphylococcus aureus. The method, then:
as §3

Experiment [14] concerns S. aureus CS. In kind it is cell-based, Staphylococcus aureus. The method, then: as §3
Experiment [15] concerns S. aureus SG511. In kind it is cell-based, Staphylococcus aureus. The method, then: as §3
For experiment [16], the system named is E. faecium 4147 VRE. The format is cell-based, Enterococcus faecium. To be noted: 4147 VRE. The method, then:
as §3

The test system of experiment [17] is E. faecium 4147-1. The format is cell-based, Enterococcus faecium. To be noted: 4147-1. The method, then: as §3
The test system of experiment [18] is M. luteus. To be noted: data of Szekat et al.; cited from earlier work.
Experiment [19] concerns E. faecium 11.4103A. Kind of experiment: MIC, two-fold serial dilution in broth. The note with it: Table 8B; MHB + 50 μg/ml calcium; duplicate. The format is cell-based, Enterococcus faecium. The method, then:
as §1, §2

Values after ≈ are worked out from the molar mass of the structure shown. Where two headings read alike, the source gives them in different places. Square brackets hold non-standard residues; d marks the D form. Ends that are not written are not given here. Dha = C=C(N)C(=O)O

Consider “G9S: mersacidin variant (CTFTLPGGSGVCTLT[Dha]ECIC; thioether (positions not given here); not fully specified; UniProt P43683 49-68, looked up, variant G9S)”, for which, in [1], the “MIC E. faecium 19579” value is recorded as >64, >64 μg/ml. Further, the “MIC E. faecium 7131121” value in experiment [2] is recorded as >64, >64 μg/ml. Besides, the “MIC E. faecalis 29212” value in experiment [3] is reported as >64, >64 μg/ml. Besides, the “MIC S. aureus R33” value in experiment [4] is given as >64, >64 μg/ml. Also, in experiment [5], the “MIC S. aureus SH1000” value is reported as >64, >64 μg/ml. For the same compound, in experiment [6], the “MIC S. epidermidis 11047” value is reported as >64, >64 μg/ml. For the same compound, the “MIC S. pneumoniae R6” value in experiment [7] was >64, >64 μg/ml.

With `C=C1NC(=O)C2NC(=O)[C@H](CC(C)C)NC(=O)C(NC(=O)[C@@H]3CSC(C)C(NC(=O)[C@H](Cc4ccccc4)NC(=O)C4NC(=O)[C@@H](N)CSC4C)C(=O)N[C@@H](CC(C)C)C(=O)N4CCC[C@H]4C(=O)NCC(=O)NCC(=O)NCC(=O)NCC(=O)N[C@@H](C(C)C)C(=O)N3)C(C)SC[C@H](NC(=O)[C@H](CCC(=O)O)NC1=O)C(=O)N[C@@H]([C@@H](C)CC)C(=O)NC=CSC2C` (stereo partly drawn) [Mersacidin, mersacidin], the “MIC M. luteus 4698” value in [8] (4698) was found to be 0.5 µg/mL (≈ 0.274 µM). Also, in experiment [7], the “MIC S. pneumoniae R6” value is <4, <4 μg/ml. The “MIC E. coli SM1411” value in experiment [9] is >64, >64 μg/ml. Besides, the “MIC S. pyogenes 13608” value in [10] is 0.25 mg/L (≈ 0.137 µM). Also, the “MIC S. pyogenes 16205” value in [11] was found to be 0.5 mg/L (≈ 0.274 µM). The “MIC S. aureus 1012-13 MRSA” value in experiment [12] was determined as 8 mg/L (≈ 4.38 µM). Also, the “MIC S. aureus COL MRSA” value in [13] was 16 mg/L (≈ 8.76 µM). The “MIC S. aureus CS” value in experiment [14] came out at 4 mg/L (≈ 2.19 µM). Besides, the “MIC S. aureus SG511” value in experiment [15] amounted to 2 mg/L (≈ 1.1 µM). The “MIC E. faecium 4147 VRE” value in experiment [16] was 64 mg/L (≈ 35 µM). In addition, the “MIC E. faecium 4147-1” value in experiment [17] was determined as 64 mg/L (≈ 35 µM). Further, the “MIC against M. luteus” value in experiment [18] is 0.195 mg/L (≈ 0.107 µM).

With “G10N: mersacidin variant (CTFTLPGGGNVCTLT[Dha]ECIC; thioether (positions not given here); not fully specified; UniProt P43683 49-68, looked up, variant G10N)”, the “MIC E. faecium 19579” value in experiment [1] is listed as >64, >64 μg/ml. For the same compound, the “MIC E. faecium 7131121” value in [2] was >64, >64 μg/ml. Moreover, the “MIC E. faecalis 29212” value in experiment [3] is reported as >64, >64 μg/ml. Also, in experiment [4], the “MIC S. aureus R33” value is given as >64, >64 μg/ml. For the same compound, in experiment [5], the “MIC S. aureus SH1000” value is reported as >64, >64 μg/ml. In [6], the “MIC S. epidermidis 11047” value is recorded as >64, >64 μg/ml. The “MIC S. pneumoniae R6” value in experiment [7] was >64, >64 μg/ml.

“G9R: mersacidin variant (CTFTLPGGRGVCTLT[Dha]ECIC; thioether (positions not given here); not fully specified; UniProt P43683 49-68, looked up, variant G9R)”: the “MIC E. faecium 19579” value in experiment [1] is reported as >64, >64 μg/ml. The “MIC E. faecium 7131121” value in experiment [2] was >64, >64 μg/ml. In addition, the “MIC E. faecalis 29212” value in experiment [3] is >64, >64 μg/ml. Further, the “MIC S. aureus R33” value in experiment [4] is >64, >64 μg/ml. Moreover, in experiment [5], the “MIC S. aureus SH1000” value was >64, >64 μg/ml. The “MIC S. epidermidis 11047” value in experiment [6] is reported as >64, >64 μg/ml. Besides, in experiment [7], the “MIC S. pneumoniae R6” value is on record as >64, >64 μg/ml.

In the case of “G10V: mersacidin variant (CTFTLPGGGVVCTLT[Dha]ECIC; thioether (positions not given here); not fully specified; UniProt P43683 49-68, looked up, variant G10V)”, the “MIC E. faecium 11.4103A” value in [19] is recorded as >64, >64 μg/ml. For the same compound, the “MIC E. faecium 19579” value in experiment [1] is reported as >64, >64 μg/ml. In experiment [3], the “MIC E. faecalis 29212” value is on record as >64, >64 μg/ml. Moreover, in experiment [4], the “MIC S. aureus R33” value is on record as >64, >64 μg/ml. Also, the “MIC S. aureus SH1000” value in experiment [5] was >64, >64 μg/ml. Also, the “MIC M. luteus 4698” value in experiment [8] (Table 8B, MHB + 50 μg/ml calcium, duplicate) was <4, <4 μg/ml.
